Test results taken from patent publication US12503426B2, “Synthetic derivatives of oleoyl-lysophosphatidylinositol (oleoyl-LPI) and uses thereof” (LIPOVEXA SRL, priority 2017, dated 2025).

Legend:
GPR55 mRNA = assay: siRNA knockdown of GPR55 mRNA by real-time RT-PCR; format: cell-based, murine; conditions: Glutag cells, 48 hours post transfection
Description: Transfection was performed according to the “Lipofectamine transfection protocol” (Invitrogen, Life Technologies) and optimised for a 6-well plate format. Briefly, cells were plated in complete growth medium at a density of 3.0×10^5/well in a 6-well plate and incubated at 37° C./5% CO2. Twenty-four hours later, when cells were ˜60% confluent, transfection was performed in RNAse-free conditions. 300 nM of total siRNA pool and 4.0 μl of Lipofectamine transfection reagent were diluted in separate tubes in Optimem and incubated for 5 min at room temperature (RT). The contents of the tubes were carefully mixed and incubated again for 20 min at RT. Cells were washed twice with sterile 1×PBS and incubated in 300 μL of Optimem. After 20 min, transfection complexes were added to the cells drop wise. Cells were then incubated for 4 hours before adding Optimem containing 30% serum without antibiotic. Cells were further incubated at 37° C./5% CO2 for 48 h before secretion experiment. […]
Transfection efficiency was quantified by real-time RT-PCR. […]
RT-qPCR was performed according to manufacturer's instructions (Cat. No. K0222, Fermentas). […] The relative changes in gene expression quantification were calculated using the relative ddCT analysis mode of the ABI 7500 Real-Time PCR system software.

ERK = ERK phosphorylation by Western blot, NCI-H716 cells; format: cell-based, human; conditions: pre-treatment 1 hour, 50 μM, then oleoyl-LPI
Description: When cell cultures reached 80-90%, media were removed and cells were washed twice with 1×PBS. The cells were lysed in 150 μl (for one well of a 6 well plate) of Triton X-100 lysis buffer, containing phosphatase inhibitor cocktail (1:1000) (Sigma Aldrich, UK) and protease inhibitor (1:1000, Sigma Aldrich, UK). Cells were detached with scrapers and lysate were collected and centrifuged at 10,000 rpm, 4° C. for 5 minutes. The supernatant was then transferred to a 1.5 ml microcentrifuge tube and used for protein quantification. Cell lysates were stored at −20° C. for longer storage. All lysates were prepared on ice.
Non-specific antibody binding was prevented by incubating the nitrocellulose membrane in 5% milk in PBS-0.05% Tween-20 (v/v) for 30 minutes on a rotating plate. The membrane was then washed in PBS-0.05% Tween-20 (v/v) and then incubated with the primary antibody diluted in PBS-0.05% Tween-20 (v/v) on a rotating plate overnight at 4° C. After 24 hours, the membrane was washed 5× for 5 minutes with PBS-0.05% Tween-20 (v/v), and then incubated on a rotating plate with the appropriate secondary antibody for 1 hour at room temperature. […]

Glutag cells = assay: GLP-1 secretion by Glutag cells; format: cell-based, murine; conditions: Glutag cells, inhibitor 1 hour before oleoyl-LPI (PD98059 50 μM; H89 10 μM)
Description: Glutag cells were maintained in low glucose DMEM (Sigma) (1 g/L) containing 2.0 mM L-glutamine, 1.0 mM sodium pyruvate and supplemented with 10% FBS, 100 IU/ml penicillin, 100 μg/ml streptomycin at a 37° C. and 5% CO2.
(§1) Approximately 80,000 Glutag cells were plated in poly-L-lysine-coated 24-well culture plates and grown to about 80% confluence. NCI-H716 cells were seeded on growth factor reduced Matrigel™ (Becton Dickinson, Bedford, MA) in DMEM medium, supplemented with 10% FBS the day before the experiment. For NCI-H716 cells, approximately 25,000 cells were needed for this secretion experiment in order to have good stimulation with lower basal GLP-1 secretion. In brief, Glutag and NCI-H716 cells were washed twice and then incubated for 2 h with FBS-free DMEM containing 1% (M:C) alone (negative control), 10 μM forskolin as positive control (Sigma-Aldrich), or with different concentrations of Oleoyl-LPI. M:C was used as a solvent to prepare stock solutions of fatty acid derivatives and inhibitors. For secretion experiments, medium and cells were collected separately.
(§2) In separate studies, GLUTag or NCI-H716 cells were pre-treated for 1 hour with medium alone (1% DMSO, negative control), PD98059 (50 μM; Sigma Chemical Co.), H89 (10 μM; Santa Cruz) followed by treatment with oleoyl-LPI (20 μM), OEA (10 μM), AR231453(1 μM), PMA (10 μM) or forskolin (10 μM, positive control) in the presence of inhibitors, as appropriate, for about 2 h. Medium GLP-1 secretion was calculated as total GLP-1 content of medium normalised for the basal secretion of the control.
(§3) In order to investigate the role of different LPI species in enteroendocrine cells, murine (Glutag) and human (NCI-H716) L-cells were stimulated with the following different species of LPI: Arachidonyl-LPI, Stearoyl-LPI, Heptadecenoyl-LPI and oleoyl-LPI, as well as with OEA and LPC. Experiments were performed in duplicate, n=4 and the level of total GLP-1 was measured by ELISA.

NCI-H716 cells = assay: GLP-1 secretion by NCI-H716 cells (Examples 2-8); format: cell-based, human; conditions: NCI-H716 cells, inhibitor 1 hour before oleoyl-LPI (PD98059 50 μM; H89 10 μM)
Description: NCI-H716 cells were maintained in 75 cm^2 tissue culture flasks (Corning) in RPMI 1640 media containing 2.0 mM L-glutamine, 1.5 g/L sodium bicarbonate, 10 mM HEPES buffer, 1.0 mM sodium pyruvate, and 4.5 g/L glucose and supplemented with 10% FBS at a 37° C. and 5% CO2. When plating for experiment, cell adhesion and endocrine differentiation were initiated by growing cells in dishes coated with growth factor reduced Matrigel diluted at the ratio of 1:2 (Becton Dickinson, Bedford, MA) in high-glucose DMEM, 10% FBS, 2 mM glutamine, 100 IU/ml penicillin, and 100 μg/ml streptomycin as described previously by De Bruine, a P., Dinjens, W. N., van der Linden, E. P., Pijls, M. M., Moerkerk, P. T., & Bosman, F. T. (1993) The American Journal of Pathology, Vol 142(3), pp 773-782, the disclosure of which is incorporated herein in its entirety by reference.
as §1, §2, §3

Compound	knockdown of GPR55 mRNA (GPR55 mRNA)	ERK phosphorylation (ERK)	oleoyl-LPI induced GLP-1 secretion with inhibitor pre-treatment (Glutag cells)	oleoyl-LPI induced GLP-1 secretion with inhibitor pre-treatment (NCI-H716 cells)
GPR55 siRNA: murine siRNA against GPR55, ACAGGGAAGUGGAGAGAUA (SEQ ID NO: 3) (listed as RNA, chemistry not given here; listed as Mus musculus)	80%			
COc1cccc(-c2cc(=O)c3ccccc3o2)c1N [PD98059]		substantially reduced ERK phosphorylation	significantly reduced oleoyl-LPI induced GLP-1 secretion	significantly reduced oleoyl-LPI induced GLP-1 secretion
